Literature values in patent EP0859828B2, “DELIVERY SYSTEMS” (THE PROCTER & GAMBLE COMPANY, priority 1995, dated 1997).

Conditions: 25°C; cobalt pentaamine catalysts complexed with the named ligand

Row | Compound | base hydrolysis rates (kOH) [M⁻¹ s⁻¹]
1 | CC(=O)O [acetate] | 0.00096
2 | oxalate | 0.00025
